Data taken from patent US9302999B2, “Substituted triazoles as herbicides” (E. I. DU PONT DE NEMOURS AND COMPANY, priority 2012, dated 2016).

Assays:
Assay type in all cases: in vivo
[1] = system: Russian thistle (Salsola iberica); assay: Test D pre-/postemergence: Russian thistle
Method in brief: (§1)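 Applied as a non-phytotoxic solvent formulation with surfactant, compounds were tested preemergence in silt loam and postemergence on seedlings 2 to 18 cm high in peat-vermiculite medium. Evaluation was visual, 0 meaning no effect and 100 complete control, at 14 to 21 days.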

[2] = system: goosegrass (Eleusine indica); assay: Test C pre-/postemergence: goosegrass; conditions: Postemergence
Method in brief: (§2)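 Visual injury scored 0–100 (100 = complete control) against untreated controls after 13–15 greenhouse days. Surfactant-containing solvent formulations applied either to soil after sowing (loam/sand) or over 1- to 4-leaf plants, 2–18 cm tall.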

[3] = system: wheat, spring (spring wheat, Triticum aestivum); assay: Test D pre-/postemergence: wheat, spring
Method in brief: as §1

[4] = system: barley, winter (winter barley, Hordeum vulgare); assay: Test D pre-/postemergence: barley, winter
Method in brief: as §1

[5] = system: speedwell (bird's-eye speedwell, Veronica persica); assay: Test D pre-/postemergence: speedwell
Method in brief: as §1

[6] = system: Russian thistle (Salsola kali); assay: Test C pre-/postemergence: Russian thistle; conditions: Preemergence
Method in brief: as §2

rice (Oryza sativa) = assay: Test C flooded paddy test: rice; conditions: Oryza sativa, scale 0 to 100 (0 no effect, 100 complete control), read-out: Plant response rating, Rice
Method in brief: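 2-leaf stage plants; pots flooded 3 cm above soil; compound applied into paddy water, depth maintained. Greenhouse 13–15 d. Visual rating vs controls, 0–100 (0 = no effect, 100 = complete control); dash = no result.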

[7] = system: surinam grass (Brachiaria decumbens); assay: Test C pre-/postemergence: surinam grass; conditions: Postemergence
Method in brief: as §2

[8] = system: windgrass (Apera spica-venti); assay: Test C postemergence: windgrass
Method in brief: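 Response values are visual ratings, 0 (no effect) to 100 (complete control), made by comparison with untreated controls 13 to 15 days after postemergence treatment of greenhouse-grown potted plants that were 2 to 18 cm high at spraying.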

[9] = Postemergence, 31 g ai/ha, scale 0 to 100 (0 no effect, 100 complete control)
[10] = Postemergence, 62 g ai/ha, scale 0 to 100 (0 no effect, 100 complete control)
[11] = Postemergence, 125 g ai/ha, scale 0 to 100, 0 no effect, 100 complete control
[12] = Postemergence, 250 g ai/ha, scale 0 to 100 (0 no effect, 100 complete control)
[13] = Postemergence, 16 g ai/ha, scale 0 to 100
[14] = Preemergence, 16 g ai/ha, scale 0 to 100 (0 no effect, 100 complete control)
[15] = Preemergence, 31 g ai/ha, scale 0 to 100 (0 no effect, 100 complete control)
[16] = Preemergence, 62 g ai/ha, scale 0 to 100
[17] = Preemergence, 250 g ai/ha, scale 0 to 100
[18] = 31 g ai/ha, scale 0 to 100 (0 no effect, 100 complete control)
[19] = 62 g ai/ha, scale 0 to 100 (0 no effect, 100 complete control)
[20] = 125 g ai/ha, scale 0 to 100, 0 no effect, 100 complete control
[21] = Preemergence, 125 g ai/ha, scale 0 to 100

`Cc1nn(-c2ccc(F)cc2)nc1Cc1ccnc(C(F)(F)F)c1` [Compound 16, 4-[[2-(4-fluorophenyl)-5-methyl-2H-1,2,3-triazol-4-yl]methyl]-2-(trifluoromethyl)pyridine] was tested, and the “Plant response rating: Russian Thistle” value [1, 9] was 95, the “Plant response rating: Russian Thistle” value [1, 10] was 100 and the “Plant response rating: Russian Thistle” value [1, 11] was 100. The “Plant response rating: Russian Thistle” value [1, 12] was 100, the “Plant response rating, Russian Thistle” value [1, 13] was 90 and the “Plant response rating, Russian Thistle” value [1, 14] was 0. For the same compound, the “Plant response rating, Russian Thistle” value [1, 15] was 35, the “Plant response rating, Russian Thistle” value [1, 16] was 40 and the “Plant response rating, Russian Thistle” value [1, 17] was 90. For the same compound, the “Plant response rating, Goosegrass” value [2, 18] was 5, the “Plant response rating, Goosegrass” value [2, 19] was 5 and the “Plant response rating, Goosegrass” value [2, 20] was 10. The “Plant response rating, Goosegrass” value ([2]; 250 g ai/ha, scale 0 to 100) was 10, the “Plant response rating: Wheat, Spring” value [3, 9] was 10 and the “Plant response rating: Wheat, Spring” value [3, 10] was 10. For the same compound, the “Plant response rating: Wheat, Spring” value [3, 11] was 15, the “Plant response rating: Wheat, Spring” value [3, 12] was 20 and the “Plant response rating, Wheat, Spring” value [3, 13] was 5. The “Plant response rating, Wheat, Spring” value [3, 14] was 0, the “Plant response rating, Wheat, Spring” value [3, 15] was 0 and the “Plant response rating, Wheat, Spring” value [3, 16] was 0. For the same compound, the “Plant response rating, Wheat, Spring” value [3, 21] was 5, the “Plant response rating, Wheat, Spring” value [3, 17] was 10 and the “Plant response rating: Barley, Winter” value [4, 9] was 10. For the same compound, the “Plant response rating: Barley, Winter” value [4, 10] was 10, the “Plant response rating: Barley, Winter” value [4, 11] was 25 and the “Plant response rating: Barley, Winter” value [4, 12] was 40. The “Plant response rating, Barley, Winter” value [4, 13] was 5, the “Plant response rating, Barley, Winter” value [4, 14] was 0 and the “Plant response rating, Barley, Winter” value [4, 15] was 0. For the same compound, the “Plant response rating, Barley, Winter” value [4, 16] was 5, the “Plant response rating, Barley, Winter” value [4, 21] was 10 and the “Plant response rating, Barley, Winter” value [4, 17] was 25. For the same compound, the “Plant response rating: Speedwell” value [5, 9] was 75, the “Plant response rating: Speedwell” value [5, 10] was 85 and the “Plant response rating: Speedwell” value [5, 11] was 95. The “Plant response rating: Speedwell” value [5, 12] was 100, the “Plant response rating, Speedwell” value [5, 13] was 25 and the “Plant response rating, Speedwell” value [5, 15] was 20. For the same compound, the “Plant response rating, Speedwell” value [5, 16] was 40, the “Plant response rating, Speedwell” value [5, 21] was 100 and the “Plant response rating, Speedwell” value [5, 17] was 100. The “Plant response rating, Russian Thistle” value ([6]; 31 g ai/ha, scale of 0 to 100, 0 is no effect, 100 is complete control) was 45, the “Plant response rating, Russian Thistle” value ([6]; 62 g ai/ha, scale of 0 to 100, 0 is no effect, 100 is complete control) was 100 and the “Plant response rating, Russian Thistle” value [6, 20] was 100. The “Plant response rating, Russian Thistle” value ([6]; 250 g ai/ha, scale 0 to 100, 0 no effect, 100 complete control) was 100, the plant injury at 62 g/ha (rice (Oryza sativa); Flood (flooded paddy test), 62 g ai/ha, visual rating after 13 to 15 days) was 30% and the plant injury at 125 g/ha (rice (Oryza sativa); Flood (flooded paddy test), 125 g ai/ha, visual rating after 13 to 15 days) was 40%. The plant injury at 250 g/ha (rice (Oryza sativa); Flood (flooded paddy test), 250 g ai/ha, visual rating after 13 to 15 days) was 50%, the plant injury at 31 g/ha (rice (Oryza sativa); Flood, 31 g ai/ha) was 20% and the “Plant response rating, Surinam Grass” value [7, 18] was 5. For the same compound, the “Plant response rating, Surinam Grass” value [7, 19] was 5, the “Plant response rating, Surinam Grass” value [7, 20] was 10 and the “Plant response rating, Surinam Grass” value ([7]; 250 g ai/ha, scale 0 to 100) was 45. The “Plant response rating, Windgrass” value [8, 18] was 45, the “Plant response rating, Windgrass” value [8, 19] was 50 and the “Plant response rating, Windgrass” value [8, 20] was 50. For the same compound, the “Plant response rating, Windgrass” value ([8]; 250 g ai/ha, scale 0 to 100) was 50.
